Legend:
[1] = target: Vascular endothelial growth factor receptor 2 (Homo sapiens, UniProt P35968); assay: Inhibition of Vascular endothelial growth factor receptor 2 (KDR)
NIH3T3 = assay: inhibitory activity of the Compound against NIH3T3 Cell lines; type: functional, cell-based; conditions: Mus musculus

Vascular endothelial growth factor receptor 2, sequence (P35968 whole entry): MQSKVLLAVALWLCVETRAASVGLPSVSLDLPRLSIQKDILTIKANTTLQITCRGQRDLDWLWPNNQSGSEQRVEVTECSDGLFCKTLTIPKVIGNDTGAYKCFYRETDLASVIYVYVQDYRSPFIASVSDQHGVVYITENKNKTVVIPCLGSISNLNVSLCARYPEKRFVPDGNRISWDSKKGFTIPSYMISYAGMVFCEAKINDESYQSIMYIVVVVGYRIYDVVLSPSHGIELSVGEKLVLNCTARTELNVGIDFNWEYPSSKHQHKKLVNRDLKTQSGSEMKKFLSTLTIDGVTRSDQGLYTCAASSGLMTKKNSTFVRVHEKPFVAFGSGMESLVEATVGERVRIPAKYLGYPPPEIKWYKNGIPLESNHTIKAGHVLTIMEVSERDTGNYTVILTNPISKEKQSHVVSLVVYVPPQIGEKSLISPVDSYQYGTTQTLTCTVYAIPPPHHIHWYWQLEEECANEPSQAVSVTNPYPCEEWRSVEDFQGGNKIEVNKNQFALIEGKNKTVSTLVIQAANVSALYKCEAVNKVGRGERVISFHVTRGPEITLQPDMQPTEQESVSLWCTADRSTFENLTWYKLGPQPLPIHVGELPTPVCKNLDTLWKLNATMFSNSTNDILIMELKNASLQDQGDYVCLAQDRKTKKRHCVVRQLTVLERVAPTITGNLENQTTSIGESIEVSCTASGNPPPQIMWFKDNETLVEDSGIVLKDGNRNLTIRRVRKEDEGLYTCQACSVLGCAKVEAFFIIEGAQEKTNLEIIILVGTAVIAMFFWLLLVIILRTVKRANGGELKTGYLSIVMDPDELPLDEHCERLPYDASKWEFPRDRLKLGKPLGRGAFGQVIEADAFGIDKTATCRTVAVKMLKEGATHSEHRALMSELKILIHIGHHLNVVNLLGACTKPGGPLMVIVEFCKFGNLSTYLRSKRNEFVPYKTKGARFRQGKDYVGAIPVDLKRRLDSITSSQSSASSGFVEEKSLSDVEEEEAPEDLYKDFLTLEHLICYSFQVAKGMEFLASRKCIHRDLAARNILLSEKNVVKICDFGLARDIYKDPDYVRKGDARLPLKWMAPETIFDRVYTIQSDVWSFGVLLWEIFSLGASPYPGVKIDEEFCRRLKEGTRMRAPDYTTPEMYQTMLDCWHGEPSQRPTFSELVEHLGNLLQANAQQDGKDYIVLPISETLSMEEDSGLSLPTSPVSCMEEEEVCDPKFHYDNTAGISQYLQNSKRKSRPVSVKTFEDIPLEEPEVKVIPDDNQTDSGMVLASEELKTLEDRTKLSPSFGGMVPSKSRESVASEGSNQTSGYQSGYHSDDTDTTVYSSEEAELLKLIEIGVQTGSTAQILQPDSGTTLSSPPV

IC50 [1] | SMILES | IC50 (NIH3T3)
430 nM | Cc1ccc(NC(=O)Nc2ccc(-c3cccc4c3CNC4=O)cc2)cc1 | –
46 nM | O=C(Nc1ccc(-c2cccc3c2CNC3=O)cc1)Nc1cccc(Cl)c1 | –
520 nM | O=C(Nc1ccc(-c2cccc3c2CNC3=O)cc1)Nc1cccc(F)c1 | –
470 nM | Cc1cccc(NC(=O)Nc2ccc(-c3ccc(NC(=O)c4ccccc4)c4c3CNC4=O)cc2)c1 | –
10000 nM | Cc1cccc(NC(=S)Nc2ccc(-c3cccc4c3CNC4=O)cc2)c1 | –
34 nM | Cc1cccc(NC(=O)Nc2ccc(-c3cccc4c3CNC4=O)cc2C(F)(F)F)c1 | –
> 50000 nM | Cc1cccc(CC(=O)Nc2ccc(-c3cccc4c3CNC4=O)cc2)c1 | –
14 nM | Cc1cccc(NC(=O)Nc2ccc(-c3ccc(N)c4c3CNC4=O)cc2)c1 | –
– | Cc1cccc(NC(=O)Nc2ccc(-c3cccc4c3CNC4=O)cc2C)c1 | 68 nM
64 nM | CC(=O)Nc1ccc(-c2ccc(NC(=O)Nc3cccc(C)c3)cc2)c2c1C(=O)NC2 | –
370 nM | N#Cc1cccc(NC(=O)Nc2ccc(-c3cccc4c3CNC4=O)cc2)c1 | –
23 nM | O=C(Nc1ccc(-c2cccc3c2CNC3=O)cc1)Nc1cc(C(F)(F)F)ccc1F | 150 nM
21 nM | COc1ccc(-c2ccc(NC(=O)Nc3cccc(C)c3)cc2)c2c1C(=O)NC2 | 170 nM
83 nM | Cc1cc(C)cc(NC(=O)Nc2ccc(-c3cccc4c3CNC4=O)cc2)c1 | –
10 nM | Cc1cccc(NC(=O)Nc2ccc(-c3ccc(NC(=O)c4cccnc4)c4c3CNC4=O)cc2)c1 | 11 nM
6000 nM | CCc1cc(-c2cccc3c2CNC3=O)ccc1NC(=O)Nc1cccc(C)c1 | –
44 nM | Cc1cccc(NC(=O)Nc2ccc(-c3cccc4c3CNC4=O)cc2F)c1 | –
19000 nM | Cc1cccc(N(C)C(=O)Nc2ccc(-c3cccc4c3CNC4=O)cc2)c1 | –
18 nM | CC(C)OCc1ccc2c(c1)c1c3c(c4c(c1n2CCCCC(=O)N(C)C)Cc1ccccc1-4)C(=O)NC3 | –
1100 nM | Cc1cccc(NC(=O)N(C)c2ccc(-c3cccc4c3CNC4=O)cc2)c1 | –

IC50 [1] | SMILES | IC50 (NIH3T3)
9000 nM | Cc1cccc(NC(=O)Nc2ccc(-c3cccc4c3CNC4=O)c(C(F)(F)F)c2)c1 | –
52 nM | Cc1cccc(NC(=O)Nc2ccc(-c3cccc4c3CNC4=O)c(F)c2)c1 | –
> 50000 nM | Cc1cccc(NC(=O)Nc2c(C)cc(-c3cccc4c3CNC4=O)cc2C)c1 | –
770 nM | Cc1cccc(NC(=O)Nc2ccc(-c3cccc4c3CNC4=O)c(C)c2)c1 | –
> 50000 nM | O=C1NCc2c1cccc2-c1ccc(NS(=O)(=O)c2ccccc2)cc1 | –
1800 nM | O=C(Nc1ccccc1)Nc1ccc(-c2cccc3c2CNC3=O)cc1 | –
30 nM | Cc1cccc(NC(=O)Nc2ccc(-c3cccc4c3CNC4=O)cc2Cl)c1 | 99 nM
– | Cc1cccc(NC(=O)Nc2ccc(-c3cccc4c3CNC4=O)cc2)c1 | 270 nM
71 nM | Cc1cccc(NC(=O)Nc2ccc(-c3cccc4c3CNC4=O)c(Cl)c2)c1 | –
> 50 nM | COc1cc(-c2nn([C@H]3CC[C@H](N4CCN(C)CC4)CC3)c3ncnc(N)c23)ccc1NC(=O)c1ccccc1 | –
2100 nM | Cc1cccc(NC(=O)Cc2ccc(-c3cccc4c3CNC4=O)cc2)c1 | –
350 nM | Cc1cccc(NC(=O)Nc2ccc(-c3ccc(NC(=O)CN(C)C)c4c3CNC4=O)cc2)c1 | –
570 nM | COc1cccc(NC(=O)Nc2ccc(-c3cccc4c3CNC4=O)cc2)c1 | –
4400 nM | Cc1ccccc1NC(=O)Nc1ccc(-c2cccc3c2CNC3=O)cc1 | –
> 50000 nM | O=C(Nc1ccc(-c2cccc3c2CNC3=O)cc1)c1ccccc1 | –
161 nM | O=C(Nc1ccc(-c2cccc3c2CNC3=O)cc1)Nc1ccc(C(F)(F)F)cc1 | –
126 nM | COCCOc1ccc(-c2ccc(NC(=O)Nc3cccc(C)c3)cc2)c2c1C(=O)NC2 | –
7 nM | O=C(Nc1ccc(-c2cccc3c2CNC3=O)cc1)Nc1cccc(C(F)(F)F)c1 | 65 nM
39 nM | O=C(Nc1ccc(-c2cccc3c2CNC3=O)cc1)Nc1ccc2c(c1)CCC2 | –
29 nM | CCc1cccc(NC(=O)Nc2ccc(-c3cccc4c3CNC4=O)cc2)c1 | –
